Measured values published in US7820623B2 (priority 2006, dated 2010).
Bridge positions count the residues as written; N and C are the ends. Square brackets hold non-standard residues; d marks the D form. Peptide text beside a SMILES is read from it. 1Nal = N[C@@H](Cc1cccc2ccccc12)C(=O)O

How the values were obtained:
human Kv1.1 = biological target: T1, human Kv1.1 (Homo sapiens, UniProt Q09470); type: cell-based
T1 construct: expressed in transfected cells; host or cells: HEK293

human Kv1.3 (CHO) = biological target: T2, human Kv1.3 (CHO) (Homo sapiens, UniProt P22001); assay: cell-based; type: cell-based
T2 construct: expressed in transfected cells

[1] = test system: thapsigargin-induced IFN-g production in human whole blood; type: cell-based; settings: for IC50: read-out: Analogue Activity (IC50) WB/IFNg
[2] = test system: thapsigargin-induced IL-2 production in human whole blood; settings: for IC50: read-out: Analogue Activity (IC50) WB/IL-2
human Kv1.1 (HEK293) = biological target: T3, human Kv1.1 (HEK293) (Homo sapiens, UniProt Q09470); assay: cell-based
T3 construct: expressed in transfected cells; host or cells: HEK293

human Kv1.3 = human Kv1.3 (Homo sapiens, UniProt P22001); assay: cell-based
[3] = test system: CD40L on CD4+ T cells in human whole blood; type: cell-based
[4] = test system: IL-2R on CD4+ T cells in human whole blood; type: cell-based

T2 sequence (P22001 whole entry): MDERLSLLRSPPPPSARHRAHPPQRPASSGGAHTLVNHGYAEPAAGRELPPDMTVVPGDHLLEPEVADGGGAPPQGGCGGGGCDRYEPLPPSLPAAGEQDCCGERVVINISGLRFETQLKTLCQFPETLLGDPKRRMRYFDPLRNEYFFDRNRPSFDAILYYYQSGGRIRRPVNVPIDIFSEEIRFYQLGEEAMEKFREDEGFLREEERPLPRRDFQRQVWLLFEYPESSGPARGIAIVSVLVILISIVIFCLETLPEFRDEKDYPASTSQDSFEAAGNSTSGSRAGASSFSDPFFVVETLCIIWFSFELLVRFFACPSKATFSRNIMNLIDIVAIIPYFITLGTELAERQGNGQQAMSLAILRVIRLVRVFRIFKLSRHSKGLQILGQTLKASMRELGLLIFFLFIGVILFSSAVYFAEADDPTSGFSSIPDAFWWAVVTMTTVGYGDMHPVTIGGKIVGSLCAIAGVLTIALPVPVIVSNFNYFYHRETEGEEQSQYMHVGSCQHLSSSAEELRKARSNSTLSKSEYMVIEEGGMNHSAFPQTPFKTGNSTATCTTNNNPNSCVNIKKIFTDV
Sequence of human Kv1.3 (P22001 whole entry): as above
T3 sequence (Q09470 whole entry): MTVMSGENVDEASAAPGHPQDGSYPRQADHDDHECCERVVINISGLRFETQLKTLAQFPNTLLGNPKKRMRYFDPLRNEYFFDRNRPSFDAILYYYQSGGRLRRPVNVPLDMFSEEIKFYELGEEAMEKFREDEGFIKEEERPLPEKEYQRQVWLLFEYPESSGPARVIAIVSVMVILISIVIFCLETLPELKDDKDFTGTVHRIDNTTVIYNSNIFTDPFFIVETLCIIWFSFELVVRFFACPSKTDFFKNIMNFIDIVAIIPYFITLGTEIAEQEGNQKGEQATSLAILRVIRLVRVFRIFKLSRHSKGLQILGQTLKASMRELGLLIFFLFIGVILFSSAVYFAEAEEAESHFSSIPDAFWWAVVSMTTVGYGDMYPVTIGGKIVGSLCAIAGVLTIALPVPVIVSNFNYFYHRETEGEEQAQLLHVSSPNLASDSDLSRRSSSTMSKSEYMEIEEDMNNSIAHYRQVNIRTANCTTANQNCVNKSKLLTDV
T1 sequence (Q09470 whole entry): as above

Compound: Fc-L10-OSK1[E16K,K20D]: Fc-L10-OSK1 with glutamic acid to lysine at 16 and lysine to aspartic acid at 20
- blocking activity against Kv1.1 (human Kv1.1): removed the blocking activity against Kv1.1

Compound: Fc-L10-OSK1[K7S,E16K,K20D]: Fc-L10-OSK1 with triple substitution K7S, E16K, K20D
- IC50 (human Kv1.1; read-out: hKv1.1: IC50): 10 nM

Compound: CC[C@H](C)[C@H](NC(=O)[C@@H](NC(=O)CN)C(C)C)C(=O)N[C@H](C(=O)N[C@@H](CC(N)=O)C(=O)N[C@H](C(=O)N[C@@H](CCCCN)C(=O)N[C@H]1CSSC[C@@H]2NC(=O)[C@H](CCCCN)NC(=O)CNC(=O)[C@H](Cc3ccccc3)NC(=O)[C@H](CCCNC(=N)N)NC(=O)[C@H](CCSC)NC(=O)CNC(=O)[C@H](C)NC(=O)[C@H](CCCCN)NC(=O)[C@H](CCCCN)NC(=O)[C@@H]3CSSC[C@@H](C(=O)N[C@H](C(=O)N4CCC[C@H]4C(=O)N[C@@H](CCCCN)C(=O)O)[C@@H](C)O)NC(=O)[C@H](Cc4c[nH]cn4)NC(=O)[C@H](CSSC[C@H](NC(=O)[C@H](CCC(N)=O)NC(=O)[C@H](CCCNC(=N)N)NC(=O)[C@H](CO)NC(=O)[C@H](Cc4cccc5ccccc45)NC(=O)[C@H](CCCCN)NC1=O)C(=O)N[C@@H](CC(C)C)C(=O)N[C@@H](CCC(=O)O)C(=O)N1CCC[C@H]1C(=O)N3)NC(=O)[C@H](CCCCN)NC(=O)CNC(=O)[C@H](CC(N)=O)NC(=O)[C@H](CCSC)NC2=O)C(C)C)[C@@H](C)CC [I10Nal] (H-GVIINVKCK[1Nal]SRQCLEPCKKAGMRFGKCMNGKCHCTPK-OH; disulfide 8-28, 14-33, 18-35)
- IC50 (human Kv1.3 (CHO)): 0.0454 nM
- IC50 [1]: 0.257 nM
- IC50 [2]: 0.184 nM
- IC50 (human Kv1.1 (HEK293)): < 0.00152 nM

Compound: Fc-L10-OSK1[K7S]: Fc-L10-OSK1 with lysine to serine at position 7
- change in Kv1.3 potency compared to Fc-L10-OSK1 (human Kv1.3): 2 fold
- fold less potent than the synthetic OSK1 toxin peptide (Kv1.3 IC50) (human Kv1.3): approximately 10 fold
- hKv1.1/hKv1.3 selectivity ratio (human Kv1.3): 269
- IC50 (human Kv1.3; read-out: IC50 for block of the outward potassium current): 0.372 ± 0.071 nM
- change in selectivity compared to Fc-L10-OSK1 (human Kv1.1): 1.3 fold

Compound: CC[C@H](C)[C@@H]1NC(=O)[C@H](CCCCN)NC(=O)[C@@H](NC(=O)[C@H](CCCCN)NC(=O)[C@@H](NC(=O)[C@H](CC(N)=O)NC(=O)[C@@H](NC(=O)[C@@H](NC(=O)[C@@H](NC(=O)CN)C(C)C)[C@@H](C)CC)[C@@H](C)CC)C(C)C)CSSC[C@@H]2NC(=O)[C@H](CCCCN)NC(=O)CNC(=O)[C@H](Cc3ccccc3)NC(=O)[C@H](CCCNC(=N)N)NC(=O)[C@H](CCSC)NC(=O)CNC(=O)[C@H](C)NC(=O)[C@H](CCCCN)NC(=O)[C@H](CCCCN)NC(=O)[C@@H]3CSSC[C@@H](C(=O)N[C@H](C(=O)N4CCC[C@H]4C(=O)N[C@@H](CCCCN)C(=O)O)[C@@H](C)O)NC(=O)[C@H](Cc4c[nH]cn4)NC(=O)[C@H](CSSC[C@H](NC(=O)[C@H](CCC(N)=O)NC(=O)[C@H](Cc4cccc5ccccc45)NC(=O)[C@H](CO)NC1=O)C(=O)N[C@@H](CC(C)C)C(=O)N[C@@H](CCC(=O)O)C(=O)N1CCC[C@H]1C(=O)N3)NC(=O)[C@H](CCCCN)NC(=O)CNC(=O)[C@H](CC(N)=O)NC(=O)[C@H](CCSC)NC2=O [R12Nal] (H-GVIINVKCKIS[1Nal]QCLEPCKKAGMRFGKCMNGKCHCTPK-OH; disulfide 8-28, 14-33, 18-35)
- IC50 (human Kv1.3 (CHO)): 0.0377 nM
- IC50 [1]: 0.387 nM
- IC50 [2]: 0.46 nM
- IC50 (human Kv1.1 (HEK293)): 0.025 nM

Compound: IbTx: BKCa channel inhibitor iberiotoxin, purchased from Bachem (QFTDVDCSVSKECWSVCKDLFGVDRGKCMGKKCRCYQ; Definition of Artificial Sequence: Synthetic peptide) [reference compound]
- thapsigargin-induced IFN-g production in human whole blood [1]: no significant activity
- thapsigargin-induced IL-2 production in human whole blood [2]: no significant activity
- thapsigargin-induced upregulation of CD40L on T cells [3]: no significant activity
- thapsigargin-induced upregulation of the IL-2R on T cells [4]: no significant activity

Compound: CC[C@H](C)[C@@H]1NC(=O)[C@H](CCCCN)NC(=O)[C@@H](NC(=O)[C@H](CCCCN)NC(=O)[C@@H](NC(=O)[C@H](CC(N)=O)NC(=O)[C@@H](NC(=O)[C@@H](NC(=O)[C@@H](NC(=O)CN)C(C)C)[C@@H](C)CC)[C@@H](C)CC)C(C)C)CSSC[C@@H]2NC(=O)[C@H](CCCCN)NC(=O)CNC(=O)[C@H](Cc3ccccc3)NC(=O)[C@H](CCCNC(=N)N)NC(=O)[C@H](CCSC)NC(=O)CNC(=O)[C@H](Cc3cccc4ccccc34)NC(=O)[C@H](CCCCN)NC(=O)[C@H](CCCCN)NC(=O)[C@@H]3CSSC[C@@H](C(=O)N[C@H](C(=O)N4CCC[C@H]4C(=O)N[C@@H](CCCCN)C(=O)O)[C@@H](C)O)NC(=O)[C@H](Cc4c[nH]cn4)NC(=O)[C@H](CSSC[C@H](NC(=O)[C@H](CCC(N)=O)NC(=O)[C@H](CCCNC(=N)N)NC(=O)[C@H](CO)NC1=O)C(=O)N[C@@H](CC(C)C)C(=O)N[C@@H](CCC(=O)O)C(=O)N1CCC[C@H]1C(=O)N3)NC(=O)[C@H](CCCCN)NC(=O)CNC(=O)[C@H](CC(N)=O)NC(=O)[C@H](CCSC)NC2=O [A21Nal] (H-GVIINVKCKISRQCLEPCKK[1Nal]GMRFGKCMNGKCHCTPK-OH; disulfide 8-28, 14-33, 18-35)
- IC50 (human Kv1.3 (CHO)): 0.0261 nM
- IC50 [1]: 0.434 nM
- IC50 [2]: 0.315 nM
- IC50 (human Kv1.1 (HEK293)): < 0.00152 nM

Compound: CC[C@H](C)[C@@H]1NC(=O)[C@H](CCCCN)NC(=O)[C@@H](NC(=O)[C@H](CCCCN)NC(=O)[C@@H](NC(=O)[C@H](CC(N)=O)NC(=O)[C@@H](NC(=O)[C@@H](NC(=O)[C@@H](NC(=O)[C@@H](N)Cc2cccc3ccccc23)C(C)C)[C@@H](C)CC)[C@@H](C)CC)C(C)C)CSSC[C@@H]2NC(=O)[C@H](CCCCN)NC(=O)CNC(=O)[C@H](Cc3ccccc3)NC(=O)[C@H](CCCNC(=N)N)NC(=O)[C@H](CCSC)NC(=O)CNC(=O)[C@H](C)NC(=O)[C@H](CCCCN)NC(=O)[C@H](CCCCN)NC(=O)[C@@H]3CSSC[C@@H](C(=O)N[C@H](C(=O)N4CCC[C@H]4C(=O)N[C@@H](CCCCN)C(=O)O)[C@@H](C)O)NC(=O)[C@H](Cc4c[nH]cn4)NC(=O)[C@H](CSSC[C@H](NC(=O)[C@H](CCC(N)=O)NC(=O)[C@H](CCCNC(=N)N)NC(=O)[C@H](CO)NC1=O)C(=O)N[C@@H](CC(C)C)C(=O)N[C@@H](CCC(=O)O)C(=O)N1CCC[C@H]1C(=O)N3)NC(=O)[C@H](CCCCN)NC(=O)CNC(=O)[C@H](CC(N)=O)NC(=O)[C@H](CCSC)NC2=O [G1Nal] (H-[1Nal]VIINVKCKISRQCLEPCKKAGMRFGKCMNGKCHCTPK-OH; disulfide 8-28, 14-33, 18-35)
- IC50 (human Kv1.3 (CHO)): 0.0207 nM
- IC50 [1]: 2.56 nM
- IC50 [2]: 2.79 nM
- IC50 (human Kv1.1 (HEK293)): 0.0339 nM
